Test results as given in patent US20090311217A1, “3-SUBSTITUTED-1H-INDOLE COMPOUNDS, THEIR USE AS MTOR KINASE AND PI3 KINASE INHIBITORS, AND THEIR SYNTHESES” (priority 2008, published 2009).

Assays:
Format in all cases: biochemical
PI3K-gamma = PI3K-gamma (Homo sapiens, UniProt P48736); experiment: PI3K-gamma fluorescence polarization assay; details: PI3Kγ Avg. IC50
How it was run: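 Reactions used 5 ng enzyme with 2.5 μM diC8-PI(4,5)P2 and 25 μM ATP in 5 mM HEPES pH 7, 2.5 mM MgCl2, run 1 h at 25° C. After an EDTA quench (10 mM), 100 nM GST-GRP1 PH domain and 5 nM BODIPY-TMR-IP4 were added and fluorescence polarization was read.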

human TOR = biological target: T1, human TOR (Homo sapiens, UniProt P42345); experiment: mTOR enzyme assay (DELFIA, His6-S6K substrate); details: read-out: mTOR Kinase Avg. IC50
T1 construct: FLAG

PI3K-alpha = PI3K-alpha (Homo sapiens, UniProt P42336); experiment: PI3K-alpha fluorescence polarization assay; details: read-out: PI3Kα Avg. IC50
PI3K-alpha, sequence (P42336 whole entry, species assumed): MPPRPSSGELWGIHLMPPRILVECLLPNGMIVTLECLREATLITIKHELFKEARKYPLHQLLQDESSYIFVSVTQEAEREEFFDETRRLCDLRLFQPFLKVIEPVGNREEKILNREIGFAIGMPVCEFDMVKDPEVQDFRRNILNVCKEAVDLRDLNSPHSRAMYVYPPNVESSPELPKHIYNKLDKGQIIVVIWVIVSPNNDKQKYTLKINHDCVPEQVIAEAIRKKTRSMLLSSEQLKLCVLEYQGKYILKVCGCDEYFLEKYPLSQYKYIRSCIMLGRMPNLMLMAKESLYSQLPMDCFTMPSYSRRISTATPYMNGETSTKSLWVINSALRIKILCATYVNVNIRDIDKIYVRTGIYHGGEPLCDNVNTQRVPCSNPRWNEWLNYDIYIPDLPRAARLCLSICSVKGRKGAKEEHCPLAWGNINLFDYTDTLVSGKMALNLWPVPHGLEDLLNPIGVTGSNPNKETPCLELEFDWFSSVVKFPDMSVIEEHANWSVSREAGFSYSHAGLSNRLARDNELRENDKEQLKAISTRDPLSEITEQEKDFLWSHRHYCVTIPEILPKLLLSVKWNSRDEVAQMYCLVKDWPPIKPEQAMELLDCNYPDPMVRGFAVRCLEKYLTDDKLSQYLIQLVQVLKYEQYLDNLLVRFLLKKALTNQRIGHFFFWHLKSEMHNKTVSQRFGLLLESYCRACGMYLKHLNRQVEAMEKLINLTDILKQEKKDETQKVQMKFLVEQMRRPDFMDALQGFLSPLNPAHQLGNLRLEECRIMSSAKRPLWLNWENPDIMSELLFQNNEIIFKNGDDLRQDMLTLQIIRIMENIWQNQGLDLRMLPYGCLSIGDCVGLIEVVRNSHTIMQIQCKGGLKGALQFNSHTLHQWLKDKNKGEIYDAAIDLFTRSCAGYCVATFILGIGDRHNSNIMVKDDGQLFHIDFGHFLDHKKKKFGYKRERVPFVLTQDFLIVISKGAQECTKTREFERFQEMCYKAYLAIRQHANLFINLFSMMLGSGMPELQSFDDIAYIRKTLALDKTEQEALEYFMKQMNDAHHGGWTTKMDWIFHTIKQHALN
PI3K-alpha, sequence (P27986 whole entry partner, species assumed): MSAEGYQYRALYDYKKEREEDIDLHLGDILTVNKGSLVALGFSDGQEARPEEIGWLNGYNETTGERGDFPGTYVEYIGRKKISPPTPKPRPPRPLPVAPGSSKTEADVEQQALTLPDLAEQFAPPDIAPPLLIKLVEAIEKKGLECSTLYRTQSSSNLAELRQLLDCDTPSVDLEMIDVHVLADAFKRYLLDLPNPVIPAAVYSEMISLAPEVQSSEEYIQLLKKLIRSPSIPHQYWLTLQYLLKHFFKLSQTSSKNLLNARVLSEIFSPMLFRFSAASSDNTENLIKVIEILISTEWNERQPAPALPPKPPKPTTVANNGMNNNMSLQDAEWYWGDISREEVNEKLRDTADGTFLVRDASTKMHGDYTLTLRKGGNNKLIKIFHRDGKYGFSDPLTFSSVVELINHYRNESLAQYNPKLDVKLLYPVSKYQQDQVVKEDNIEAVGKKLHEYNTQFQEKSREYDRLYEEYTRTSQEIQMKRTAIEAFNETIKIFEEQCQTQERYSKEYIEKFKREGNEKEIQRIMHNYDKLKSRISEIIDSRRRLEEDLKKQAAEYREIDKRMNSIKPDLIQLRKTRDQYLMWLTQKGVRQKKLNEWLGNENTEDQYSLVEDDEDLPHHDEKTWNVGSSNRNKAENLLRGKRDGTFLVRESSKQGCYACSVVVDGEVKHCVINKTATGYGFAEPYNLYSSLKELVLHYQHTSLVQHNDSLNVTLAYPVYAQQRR

PI3K-gamma, sequence (P48736 whole entry, species assumed, the tested form may be a part): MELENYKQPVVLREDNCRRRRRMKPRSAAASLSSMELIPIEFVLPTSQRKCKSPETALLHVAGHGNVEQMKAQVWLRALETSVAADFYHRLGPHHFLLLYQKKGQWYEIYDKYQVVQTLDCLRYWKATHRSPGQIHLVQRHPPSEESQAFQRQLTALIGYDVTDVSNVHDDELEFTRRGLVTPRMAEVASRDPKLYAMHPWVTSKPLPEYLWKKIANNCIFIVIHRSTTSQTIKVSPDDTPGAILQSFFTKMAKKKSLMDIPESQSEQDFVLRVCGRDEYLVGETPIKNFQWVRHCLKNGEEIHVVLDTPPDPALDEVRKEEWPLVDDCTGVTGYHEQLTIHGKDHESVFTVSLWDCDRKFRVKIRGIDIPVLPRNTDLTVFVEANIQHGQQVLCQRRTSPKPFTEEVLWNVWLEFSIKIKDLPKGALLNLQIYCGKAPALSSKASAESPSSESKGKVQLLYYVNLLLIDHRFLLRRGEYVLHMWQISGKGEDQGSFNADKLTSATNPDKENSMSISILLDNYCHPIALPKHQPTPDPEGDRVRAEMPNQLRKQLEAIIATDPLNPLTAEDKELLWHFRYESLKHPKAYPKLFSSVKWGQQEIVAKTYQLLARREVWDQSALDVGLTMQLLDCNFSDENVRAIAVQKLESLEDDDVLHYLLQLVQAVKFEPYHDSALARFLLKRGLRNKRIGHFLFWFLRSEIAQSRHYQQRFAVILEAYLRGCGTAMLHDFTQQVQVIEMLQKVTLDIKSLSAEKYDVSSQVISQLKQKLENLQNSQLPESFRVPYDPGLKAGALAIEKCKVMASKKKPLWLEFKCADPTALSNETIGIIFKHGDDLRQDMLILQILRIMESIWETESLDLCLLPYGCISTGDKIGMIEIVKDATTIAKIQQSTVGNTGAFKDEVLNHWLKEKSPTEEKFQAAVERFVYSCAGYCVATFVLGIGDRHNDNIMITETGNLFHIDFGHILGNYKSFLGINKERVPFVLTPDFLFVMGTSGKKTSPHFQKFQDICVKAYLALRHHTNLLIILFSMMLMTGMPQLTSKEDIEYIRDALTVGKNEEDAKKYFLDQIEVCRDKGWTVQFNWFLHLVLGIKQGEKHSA

Compound	IC50 (PI3K-gamma)	IC50 (human TOR)	IC50 (PI3K-alpha)
CNc1ccc(-c2cccc3c2c(/C=C2\Oc4cc(O)cc(O)c4C2=O)cn3C)cc1 [Example 389, (2Z)-4,6-Dihydroxy-2-({1-methyl-4-[4-(methylamino)phenyl]-1H-indol-3-yl}methylene)-1-benzofuran-3(2H)-one]	9860 nM	11.5 nM	1870 nM
COc1ccc2[nH]cc(C=C3Oc4cccc(O)c4C3=O)c2c1 [Example 78, 4-hydroxy-2-[(5-methoxy-1H-indol-3-yl)methylene]-1-benzofuran-3(2H)-one]	1200 nM	2900 nM	516 nM
COc1ccc2c(c1)c(/C=C1\Oc3cc(-c4ccc(NC(C)=O)cc4)ccc3C1=O)cn2CCCN(C)C [Example 426, N-{4-[(2Z)-2-({1-[3-(Dimethylamino)propyl]-5-methoxy-1H-indol-3-yl}methylene)-3-oxo-2,3-dihydro-1-benzofuran-6-yl]phenyl}acetamide]	> 10000 nM	> 20000 nM	6250 nM
CNC(=O)Nc1ccc2c(c1)C(=O)/C(=C/c1c(-c3c(C)n[nH]c3C)[nH]c3ccc(OC)cc13)O2 [Compound 625, 1-[(2Z)-2-{[2-(3,5-dimethyl-1H-pyrazol-4-yl)-5-methoxy-1H-indol-3-yl]methylidene}-3-oxo-2,3-dihydro-1-benzofuran-5-yl]-3-methylurea]	4.7 nM	1 nM	0.2 nM
COc1cc(F)c2[nH]c(-c3c(C)nn(C)c3C)c(/C=C3\Oc4ccc(NC(=O)Nc5ccc(C(=O)N6CCN(CCO)CC6)cc5)cc4C3=O)c2c1 [Compound 721, 1-[(2Z)-2-{[7-fluoro-5-methoxy-2-(1,3,5-trimethyl-1H-pyrazol-4-yl)-1H-indol-3-yl]methylidene}-3-oxo-2,3-dihydro-1-benzofuran-5-yl]-3-(4-{[4-(2-hydroxyethyl)piperazin-1-yl]carbonyl}phenyl)urea]	2.25 nM	1 nM	0.6 nM
COc1ccc2[nH]c(-c3c(C)nn(C)c3C)c(/C=C3\Oc4ccc(NC(=O)Nc5ccc(C(=O)N(C)C)cc5)cc4C3=O)c2c1 [Compound 704, 4-({[(2Z)-2-{[5-methoxy-2-(1,3,5-trimethyl-1H-pyrazol-4-yl)-1H-indol-3-yl]methylidene}-3-oxo-2,3-dihydro-1-benzofuran-5-yl]carbamoyl}amino)-N,N-dimethylbenzamide]	4 nM	4 nM	0.6 nM
COc1cc(F)c2[nH]c(-c3c(C)nn(C)c3C)c(/C=C3\Oc4ccc(NC(=O)Nc5ccc(C(=O)N6CCC(N(C)C)C6)cc5)cc4C3=O)c2c1 (stereo not drawn) [Compound 732, 1-(4-{[3-(dimethylamino)pyrrolidin-1-yl]carbonyl}phenyl)-3-[(2Z)-2-{[7-fluoro-5-methoxy-2-(1,3,5-trimethyl-1H-pyrazol-4-yl)-1H-indol-3-yl]methylidene}-3-oxo-2,3-dihydro-1-benzofuran-5-yl]urea]	1.9 nM	1 nM	0.33 nM
COc1ccc2c(c1)c(/C=C1\Oc3cc(O)cc(O)c3C1=O)c(C(=O)N1CCCC1)n2CCN1CCN(C)CC1 [Example 430, (2Z)-4,6-Dihydroxy-2-({5-methoxy-1-[2-(4-methylpiperazin-1-yl)ethyl]-2-(pyrrolidin-1-ylcarbonyl)-1H-indol-3-yl}methylene)-1-benzofuran-3(2H)-one]	197 nM	115 nM	7.5 nM
COc1ccc2[nH]cc(C=C3Oc4cc(SC)ccc4C3=O)c2c1 [Example 434, 2-[(5-Methoxy-1H-indol-3-yl)methylene]-6-(methylthio)-1-benzofuran-3(2H)-one]	> 10000 nM	> 20000 nM	> 10000 nM
COc1ccc2c(c1)c(/C=C1\Oc3cc(O)ccc3C1=O)cn2CCCN(C)C [Example 324, (2Z)-2-({1-[3-(Dimethylamino)propyl]-5-methoxy-1H-indol-3-yl}methylene)-6-hydroxy-1-benzofuran-3(2H)-one]	656 nM	365 nM	91.5 nM
CCn1c(C)c(/C=C2\Oc3ccc(NC(=O)Nc4ccc(S(=O)(=O)N5CCN(C)CC5)cc4)cc3C2=O)c2cc(OC)ccc21 [Compound 677, 1-{(2Z)-2-[(1-ethyl-5-methoxy-2-methyl-1H-indol-3-yl)methylidene]-3-oxo-2,3-dihydro-1-benzofuran-5-yl}-3-{4-[(4-methylpiperazin-1-yl)sulfonyl]phenyl}urea]	144 nM	595 nM	19 nM
COc1ccc2c(c1)O/C(=C\c1c[nH]c3ccc(OC)cc13)C2=O [Example 384, (2Z)-6-Methoxy-2-[(5-methoxy-1H-indol-3-yl)methylene]-1-benzofuran-3(2H)-one]	2450 nM	> 20000 nM	> 10000 nM
COc1ccc2[nH]c(C)c(C=C3Oc4c(ccc(O)c4O)C3=O)c2c1 [Example 69, 6,7-dihydroxy-2-[(5-methoxy-2-methyl-1H-indol-3-yl)methylene]-1-benzofuran-3(2H)-one]	3500 nM	> 20000 nM	399 nM
COc1ccc2c(c1)c(/C=C1\Oc3ccc(NC(=O)Nc4ccc(NC(=O)CCN(C)C)cc4)cc3C1=O)c(C)n2CCN1CCN(C)CC1 [Compound 685, N-[4-({[(2Z)-2-({5-methoxy-2-methyl-1-[2-(4-methylpiperazin-1-yl)ethyl]-1H-indol-3-yl}methylidene)-3-oxo-2,3-dihydro-1-benzofuran-5-yl]carbamoyl}amino)phenyl]-N3,N3-dimethyl-b-alaninamide]	115 nM	16 nM	0.8 nM
CNC(=O)Nc1ccc(-c2cccc3c2c(/C=C2\Oc4cc(O)cc(O)c4C2=O)cn3C)cc1 [Example 393, 1-(4-{3-[(Z)-(4,6-Dihydroxy-3-oxo-1-benzofuran-2(3H)-ylidene)methyl]-1-methyl-1H-indol-4-yl}phenyl)-3-methylurea]	2520 nM	23.5 nM	608 nM
O=C1C(=Cc2c(-c3ccccc3)n(CCN3CCOCC3)c3ccccc23)Oc2cc(O)cc(O)c21 [Example 147, 4,6-dihydroxy-2-{[1-(2-morpholin-4-ylethyl)-2-phenyl-1H-indol-3-yl]methylene}-1-benzofuran-3(2H)-one]	6000 nM	1080 nM	2450 nM
CNC(=O)Nc1ccc2c(c1)C(=O)/C(=C/c1c(-c3c(C)nn(C)c3C)[nH]c3c(F)c(F)c(OC)cc13)O2 [Compound 713, 1-[(2Z)-2-{[6,7-difluoro-5-methoxy-2-(1,3,5-trimethyl-1H-pyrazol-4-yl)-1H-indol-3-yl]methylidene}-3-oxo-2,3-dihydro-1-benzofuran-5-yl]-3-methylurea]	70.5 nM	45 nM	14 nM
CNC(=O)Nc1ccc2c(c1)C(=O)/C(=C/c1c(-c3c(C)nn(C)c3C)[nH]c3c(OC)c(F)c(OC)cc13)O2 [Compound 712, 1-[(2Z)-2-{[6-fluoro-5,7-dimethoxy-2-(1,3,5-trimethyl-1H-pyrazol-4-yl)-1H-indol-3-yl]methylidene}-3-oxo-2,3-dihydro-1-benzofuran-5-yl]-3-methylurea]	246 nM	240 nM	23 nM
Cn1c(-c2ccccc2)c(/C=C2\Oc3cccc(O)c3C2=O)c2ccccc21 [Example 442, (2Z)-4-Hydroxy-2-[(1-methyl-2-phenyl-1H-indol-3-yl)methylene]benzofuran-3(2H)-one]	> 5100 nM	> 20000 nM	> 5100 nM
COc1ccc2c(c1)c(/C=C1\Oc3cc(O)ccc3C1=O)c(C)n2CCN1CCCC1 [Example 452, (2Z)-6-Hydroxy-2-{[5-methoxy-2-methyl-1-(2-pyrrolidin-1-ylethyl)-1H-indol-3-yl]methylene}-1-benzofuran-3(2H)-one]	990 nM	1950 nM	49.5 nM
O=C1C(=Cc2c(-c3ccccc3)n(CC3CC3)c3ccccc23)Oc2cc(O)cc(O)c21 [Example 152, 2-{[1-(cyclopropylmethyl)-2-phenyl-1H-indol-3-yl]methylene}-4,6-dihydroxy-1-benzofuran-3(2H)-one]	4470 nM	1450 nM	4180 nM
COc1ccc2c(c1)c(/C=C1\Oc3cc(O)cc(O)c3C1=O)c(C1CCC1)n2CCN1CCN(C)CC1 [Example 446, (2Z)-2-({2-Cyclobutyl-5-methoxy-1-[2-(4-methylpiperazin-1-yl)ethyl]-1H-indol-3-yl}methylene)-4,6-dihydroxy-1-benzofuran-3(2H)-one]	81 nM	3.75 nM	3.5 nM
O=C1C(=Cc2c[nH]c3cc(Br)ccc23)Oc2cc(O)cc(O)c21 [Example 143, 2-[(6-bromo-1H-indol-3-yl)methylene]-4,6-dihydroxy-1-benzofuran-3(2H)-one]	6660 nM	4450 nM	1850 nM
CNC(=O)Nc1ccc2c(c1)C(=O)/C(=C/c1c(-c3c(C)nn(C)c3C)[nH]c3ccc(OCCOC)cc13)O2 [Compound 680, 1-[(2Z)-2-{[5-(2-methoxyethoxy)-2-(1,3,5-trimethyl-1H-pyrazol-4-yl)-1H-indol-3-yl]methylidene}-3-oxo-2,3-dihydro-1-benzofuran-5-yl]-3-methylurea]	6030 nM	535 nM	1920 nM
COc1ccc2c(c1)c(/C=C1\Oc3cc(O)ccc3C1=O)c(C)n2CCCN1CCCC1C (stereo not drawn) [Example 461, (2Z)-6-Hydroxy-2-({5-methoxy-2-methyl-1-[3-(2-methylpyrrolidin-1-yl)propyl]-1H-indol-3-yl}methylene)-1-benzofuran-3(2H)-one]	1060 nM	12500 nM	19.5 nM
